Test: xn = mol fraction of the nth substance listed
Settings: Liquid, Single crystal variable path ultrasonic interferometer operating at 2 MHz

CN(C)C=O [dimethylformamide] + CO
Settings	speed of sound [m/s]
303 K, Frequency=2 MHz / Mass density=801.17 kg/m3, x1 = 0.4	1201.2
303 K, Frequency=2 MHz / Mass density=818.7 kg/m3, x1 = 0.2	1133.8
303 K, Frequency=2 MHz / Mass density=853.8 kg/m3, x1 = 0.6	1249.2
303 K, Frequency=2 MHz / Mass density=888.88 kg/m3, x1 = 0.8	1339.4
303 K, Frequency=2 MHz / Mass density=953.21 kg/m3, x1 = 1	1469.8
308 K, Frequency=2 MHz / Mass density=794.11 kg/m3, x1 = 0.4	1187.4
308 K, Frequency=2 MHz / Mass density=811.76 kg/m3, x1 = 0.2	1126.8
308 K, Frequency=2 MHz / Mass density=852.94 kg/m3, x1 = 0.6	1243.4
308 K, Frequency=2 MHz / Mass density=888.23 kg/m3, x1 = 0.8	1320
308 K, Frequency=2 MHz / Mass density=952.94 kg/m3, x1 = 1	1433.2
313 K, Frequency=2 MHz / Mass density=786.98 kg/m3, x1 = 0.4	1169.2
313 K, Frequency=2 MHz / Mass density=798.81 kg/m3, x1 = 0.2	1110.8
313 K, Frequency=2 MHz / Mass density=846.15 kg/m3, x1 = 0.6	1219.4
313 K, Frequency=2 MHz / Mass density=881.65 kg/m3, x1 = 0.8	1313.2
313 K, Frequency=2 MHz / Mass density=952.66 kg/m3, x1 = 1	1418
318 K, Frequency=2 MHz / Mass density=773.8 kg/m3, x1 = 0.4	1152
318 K, Frequency=2 MHz / Mass density=785.71 kg/m3, x1 = 0.2	1097.7
318 K, Frequency=2 MHz / Mass density=833.33 kg/m3, x1 = 0.6	1208
318 K, Frequency=2 MHz / Mass density=875 kg/m3, x1 = 0.8	1275.4
318 K, Frequency=2 MHz / Mass density=952.38 kg/m3, x1 = 1	1402.2
323 K, Frequency=2 MHz / Mass density=754.49 kg/m3, x1 = 0.4	1136
323 K, Frequency=2 MHz / Mass density=778.44 kg/m3, x1 = 0.2	1095.4
323 K, Frequency=2 MHz / Mass density=803.35 kg/m3, x1 = 0.6	1189
323 K, Frequency=2 MHz / Mass density=868.26 kg/m3, x1 = 0.8	1257.2
323 K, Frequency=2 MHz / Mass density=952.09 kg/m3, x1 = 1	1374.8

CO [methanol] + CN(C)C=O
Settings	speed of sound [m/s]
303 K, Frequency=2 MHz / Mass density=771.9 kg/m3, x2 = 0	1089
308 K, Frequency=2 MHz / Mass density=764.7 kg/m3, x2 = 0	1069.6
313 K, Frequency=2 MHz / Mass density=757.4 kg/m3, x2 = 0	1057.2
318 K, Frequency=2 MHz / Mass density=750 kg/m3, x2 = 0	1033.2
323 K, Frequency=2 MHz / Mass density=718.6 kg/m3, x2 = 0	1008
